Reference: ChEMBL document CHEMBL1133201, “Synthesis and cytotoxic activity of acetogenin analogues” (Bioorg Med Chem Lett, 2000)

What follows are compounds tested on L1210 (assay: In vitro inhibitory activity was tested against L1210 leukemia cells). Details: Mus musculus.
Type: functional, cell-based

| IC50 [nM] | SMILES |
| --- | --- |
| > 10000 | COc1ccc([C@H](O)COCCOC[C@H](O)C#CCCCCCCC[C@@H]2CC(CC(C)=O)C(=O)O2)cc1 (some centres undefined) |
| 3500 | CCCCCCCCCC[C@H](O)COCCOC[C@H](O)C#CCCCCCCC[C@@H]1CC(CC(C)=O)C(=O)O1 (some centres undefined) |
| 2500 | CCCCN(CCCC)[C@@H](O)COCCOC[C@@H](O)C#CCCCCCCC[C@@H]1CC(CC(C)=O)C(=O)O1 (some centres undefined) |
| 3300 | CC(=O)CC1C[C@@H](CCCCCCCC#C[C@@H](O)COCCOC[C@@H](O)c2ccc(C(F)(F)F)cc2)OC1=O (some centres undefined) |
| 19800 | CC(=O)CC1C[C@@H](CCCCCCCC#C[C@@H](O)COCCOC[C@@H](O)c2ccccc2)OC1=O (some centres undefined) |
| 2800 | CC(=O)CC1C[C@@H](CCCCCCCC#C[C@@H](O)COCCOC[C@@H](O)OC2CC[C@]3(C)C(=CC[C@@H]4[C@H]5CC[C@@H]([C@@H](C)CCCC(C)C)[C@]5(C)CC[C@H]43)C2)OC1=O (some centres undefined) |
| 3000 | CC(=O)CC1C[C@@H](CCCCCCCC#C[C@H](O)COCCOC[C@H](O)c2ccc3ccccc3c2)OC1=O (some centres undefined) |
| 32000 | COc1ccc([C@@H](O)COCCOC[C@@H](O)C#CCCCCCCC[C@@H]2CC(CC(C)=O)C(=O)O2)cc1 (some centres undefined) |
| 28700 | CC(=O)CC1C[C@@H](CCCCCCCC#C[C@@H](O)COCCOC[C@@H](O)N2CCCCC2)OC1=O (some centres undefined) |
| 1000 | CCCCCCCCCC[C@@H](O)COCCOC[C@@H](O)C#CCCCCCCC[C@@H]1CC(CC(C)=O)C(=O)O1 (some centres undefined) |
| 21600 | CC(=O)CC1C[C@@H](CCCCCCCC#C[C@H](O)COCCOC[C@H](O)c2ccccc2)OC1=O (some centres undefined) |

| SMILES | IC50 [nM] |
| --- | --- |
| CCCCCCCCCCCC[C@@H](O)[C@H]1CC[C@H]([C@H](O)CCCC[C@H](O)CCCCC[C@@H](O)CC2=CC(C)OC2=O)O1 (some centres undefined) [ANNONACIN] | 42 |
| CCCCCCCCCC[C@H](O)[C@H]1CC[C@H]([C@H]2CC[C@H]([C@H](O)CCCCCCCCCC[C@@H]3CC(CC(C)=O)C(=O)O3)O2)O1 (some centres undefined) [BULLATACINONE] | 16 |
| CCCCCCCCCC[C@@H](O)[C@@H]1CC[C@@H]([C@@H]2CC[C@@H]([C@H](O)CCCCCCCCCC(O)CC3=CC(C)OC3=O)O2)O1 (some centres undefined) [BULLATACIN] | 0.4 |
